# Source: patent US20070037785A1, “Novel dipeptidyl peptidase IV inhibitors used for functionally influencing different cells and treating immunological, infammatory, neuronal, and other diseases” (priority 2003, published 2007)
# Molecular target: dipeptidyl peptidase IV (Homo sapiens, UniProt P27487)
# Assay: biochemical
# Settings: values marked with "*" are ID50 values; read-out: IC50DPIV, values marked with "*" = ID50
# Sequence of dipeptidyl peptidase IV (P27487 whole entry, species assumed): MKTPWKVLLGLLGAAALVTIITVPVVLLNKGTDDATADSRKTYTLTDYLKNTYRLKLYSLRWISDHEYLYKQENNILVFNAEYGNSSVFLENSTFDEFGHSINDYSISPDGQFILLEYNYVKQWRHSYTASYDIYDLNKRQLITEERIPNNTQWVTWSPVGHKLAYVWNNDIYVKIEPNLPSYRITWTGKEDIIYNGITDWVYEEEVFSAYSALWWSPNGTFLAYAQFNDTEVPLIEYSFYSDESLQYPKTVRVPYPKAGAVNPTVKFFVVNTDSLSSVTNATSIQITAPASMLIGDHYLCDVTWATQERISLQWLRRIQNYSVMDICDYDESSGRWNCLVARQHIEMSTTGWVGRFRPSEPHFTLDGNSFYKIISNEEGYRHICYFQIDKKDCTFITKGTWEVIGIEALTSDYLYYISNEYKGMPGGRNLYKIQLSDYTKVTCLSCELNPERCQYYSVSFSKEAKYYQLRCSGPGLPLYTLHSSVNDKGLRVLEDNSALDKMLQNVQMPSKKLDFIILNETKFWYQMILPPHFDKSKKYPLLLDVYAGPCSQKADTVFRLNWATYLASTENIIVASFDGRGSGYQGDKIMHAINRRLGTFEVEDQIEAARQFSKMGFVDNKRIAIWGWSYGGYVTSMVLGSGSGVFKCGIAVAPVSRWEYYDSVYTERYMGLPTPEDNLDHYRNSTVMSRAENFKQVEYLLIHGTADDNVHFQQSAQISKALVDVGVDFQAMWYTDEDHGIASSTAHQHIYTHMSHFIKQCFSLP
row,Structure (SMILES),IC50 [µM]
1,O=C(CNC(=O)c1cccc(F)c1)N/N=C/c1cc(Br)cc(Br)c1OC(=O)c1cccc(Br)c1 [D10.102],91.9
2,Cc1ccccc1NC(=O)c1cc2c3c(c1)C1C=CCC1CN3CC1CC=CC21 (centres unmarked) [D3.110],279
3,O=C(CCCOc1ccc(Cl)cc1Cl)N/N=C1/C(=O)Nc2ccc(Br)cc21 [D10.121],204
4,CC1(C)NCC(c2ccccc2)CC1O (centres unmarked) [D4.088],96.2
5,COc1ccc(OCC(=O)N/N=C/c2ccc(OC)c(Br)c2)c(Br)c1 [D10.120],197
6,O=C(N/N=C/c1cc(Br)ccc1OC(=O)c1ccc([N+](=O)[O-])cc1)/C(=C\c1ccc2c(c1)OCO2)NC(=O)c1ccccc1 [D3.109],272
7,CCOC(=O)n1ccc(C(=O)Nc2cc(C)ccn2)n1 [D6.112],148
8,O=C(N/N=C/c1cc(Br)ccc1OC(=O)c1ccc([N+](=O)[O-])cc1)/C(=C\c1ccc2c(c1)OCO2)NC(=O)c1ccccc1 [D10.133],272
9,N/C(=N/[N+](=O)[O-])N/N=C/c1ccc(-c2cccc(Cl)c2Cl)o1 [D10.142],609
10,COc1ccc(N2C(=O)CSCC2=O)cc1OC [D4.004],3.1
11,CS(=O)(=O)N1CCN(c2ccc([N+](=O)[O-])c(NCc3ccc(Cl)cc3)c2)CC1 [D4.112],361
12,CCOC(=O)c1c(NC(=O)c2cccc([N+](=O)[O-])c2)sc(C(C)=O)c1C [D6.117],215
13,C/C(=N\NC(=O)c1cc(-c2ccc(CC(C)C)cc2)n[nH]1)c1ccc2ccccc2c1 [D10.007],7.2
14,CCOC(=O)n1ccc(C(=O)Nc2ccccn2)n1 [D2.007],148
15,CCOC(=O)O/N=C(N)/C(N)=N/OC(=O)OCC [D2.006],133
16,O=C(N/N=C/c1cccc([N+](=O)[O-])c1)c1ccc(NCc2ccccc2)cc1 [D10.126],234
17,O=C(Cn1c2ccccc2c(=O)c2ccccc21)N/N=C/c1ccc(O)c(O)c1 [D10.092],63.5
18,CCOc1cc(/C=N/NC(=O)c2nnn(-c3nonc3N)c2-c2ccccc2)ccc1OC [D10.132],271
19,Oc1ccc(-c2csc(Nc3ncccn3)n2)cc1O [D4.095],163
20,CS(=O)(=O)N1CCN(c2ccc([N+](=O)[O-])c(NCc3ccc(Cl)cc3)c2)CC1 [D5.053],361
21,O=C(N/N=C/c1cc(Br)cc(Br)c1OC(=O)c1ccccc1)/C(=C/c1cccs1)NC(=O)c1ccccc1 [D10.110],114
22,COc1ccc(NC(=O)CSc2nnc3n2-c2sc4c(c2C(=O)C3CCc2ccccc2)CC(C)(C)OC4)cc1 (centres unmarked) [D6.126],284
23,Cc1ccc(OCC(=O)N/N=C/c2c(Br)cc(Br)c(O)c2Br)c(Br)c1 [D10.106],101

# Same assay, conditions: values without "*" = IC-50; read-out: IC50DPIV
row,Structure (SMILES),IC50 [µM]
1,Cn1c(=O)n(Cc2ccccc2)c(=O)c2c1nc(N1CCNCC1)n2Cc1ccccc1 [D3.064],48.3
2,COc1ccc(N2CCN(c3nc4c(c(=O)[nH]c(=O)n4C)n3Cc3ccccc3)CC2)cc1 [D5.020],19.2
3,O=C(N/N=C/c1cc([N+](=O)[O-])cc([N+](=O)[O-])c1O)/C(=C/c1ccc([N+](=O)[O-])cc1)NC(=O)c1ccccc1 [D10.069],45.7
4,CCOC(=O)c1c(C)oc2c1c1c(c3ccccc32)OCN(C2CCS(=O)(=O)C2)C1 (centres unmarked) [D9.006],34.2
5,O=C(Nc1c[nH]c(=O)[nH]c1=O)c1ccc2c(c1)C(=O)N(c1ccc(C(=O)c3ccccc3)cc1)C2=O [D3.048],38.2
6,Cc1cccc(-n2c(=O)c3c4c(sc3n3c(CC(C)C(=O)N5CCOCC5)nnc23)COC(C(C)C)C4)c1 (centres unmarked) [D6.012],10.1
7,CCC(=O)O/N=C(/C)c1cc2ccccc2oc1=O [D3.060],45.9
8,COc1ccc(C2(N3CCCC3)Oc3ccccc3C(C#Cc3ccccc3)=C2C)cc1 (centres unmarked) [D4.071],60.7
9,CC1=C(C#N)C(=O)N(CC(C)O)C(=O)/C1=C/c1ccc(-c2ccc(Br)cc2)o1 (centres unmarked) [D4.080],73.8
10,O=C1CCCC(=O)N1c1ccc(N2CCN(Cc3ccccc3)CC2)c([N+](=O)[O-])c1 [D4.035],24.5
11,COc1ccc(C(=O)CS/C2=N/CCCCCC2)cc1 [D1.004],36.5
12,CCCn1c(N2CCN(CC(=O)c3c(C)n(C)c4ccccc34)CC2)nc2c1c(=O)[nH]c(=O)n2C [D4.019],15.2
13,CCOC(=O)c1ccc(-c2ccc(/C=C3\C(=O)N(CCO)C(=O)C(C#N)=C3C)o2)cc1 [D6.087],65.9
14,CCOC(=O)C(NC(=O)c1ccc(OC)cc1)(N1CCOCC1)C(F)(F)F (centres unmarked) [D5.021],29.2
15,O=C(COc1ccc2ccccc2c1)N/N=C/c1c(Br)cc(Br)c(O)c1Br [D10.095],69.6
16,CCCn1c(N2CCN(CC(=O)c3c(C)n(C)c4ccccc34)CC2)nc2c1c(=O)[nH]c(=O)n2C [D6.019],15.2
17,Cc1ccccc1SCC(=O)N/N=C/c1ccc(C)c([N+](=O)[O-])c1 [D10.088],58.8
18,Cc1ccccc1C(=O)N/N=C/c1ccc([N+](=O)[O-])o1 [D6.036],20.9
19,O=C(N/N=C/c1cc([N+](=O)[O-])cc([N+](=O)[O-])c1O)/C(=C\c1cccs1)NC(=O)c1ccccc1 [D10.029],17.5
20,Cn1c(=O)[nH]c(=O)c2c1nc(NCCO)n2Cc1ccccc1Cl [D3.058],44
21,CCOC(=O)N1CCN(c2ccc(N3C(=O)CCCC3=O)cc2[N+](=O)[O-])CC1 [D4.078],70.4

row,Structure (SMILES),IC50 [µM]
1,CC(C)(C)C(=O)N1CCN(c2cc(Cl)nc(SCC(=O)N3CCN(Cc4ccc5c(c4)OCO5)CC3)n2)CC1 [D3.059],45.6
2,CCCCOC(=O)c1cc(-c2ccc(/C=C3/C(=O)N(CC(C)O)C(=O)C(C#N)=C3C)o2)ccc1Cl (centres unmarked) [D12.027],49
3,CCc1c(C)[nH]c2c1/C(=N\OC(=O)C(C)C)CCC2 [D6.062],43.8
4,CCC(=O)Oc1ccc(/C=N/NC(=O)c2ccccc2[N+](=O)[O-])c(OC(=O)CC)c1 [D10.005],6.6
5,CCOC(=O)c1cc(-c2ccc(/C=C3/C(=O)NC(=O)C(C#N)=C3C)o2)ccc1Cl [D6.082],56.7
6,COc1cc(C(=O)Oc2c(Br)cc(Br)cc2/C=N/NC(=O)COc2ccc(C)cc2)cc(OC)c1OC [D10.082],55.9
7,COc1cc(N2C(=O)CSCC2=O)c(Cl)cc1Cl [D4.047],35.3
8,O=C1CCCC(=O)N1c1ccc(NCCc2ccc(O)cc2)c([N+](=O)[O-])c1 [D4.064],54.9
9,Cc1ccccc1N1C(=O)c2sc3nc4c(c(=O)n3c2C1=O)CCC4 [D3.020],15.2
10,O=C1c2ccccc2-c2c1[n+]([O-])c1c([n+]2[O-])CCCC1 [D3.017],14
11,CCCC(=O)O/N=C1\C(=O)N(c2ccccc2)c2ccccc21 [D3.021],15.2
12,C/C(=N\NC(=O)CSCc1ccccc1Br)c1ccc(I)cc1 [D10.022],13.2
13,CCOC(=O)C(NC(=O)c1ccccc1)(N1CCOCC1)C(F)(F)F (centres unmarked) [D5.041],61.9
14,CC1CCN(C(=O)/C(=C\c2ccco2)NC(=O)c2ccc(Cl)cc2)CC1 [D12.004],18.5
15,COc1cc2c(cc1OC)CC1(CCCC1)N=C2 [D3.077],59.1
16,CCCn1c(N2CCN(CC(=O)c3c[nH]c4ccccc34)CC2)nc2c1c(=O)[nH]c(=O)n2C [D12.012],30.8
17,O=C1NCCCCC1Nc1ccc(N2C(=O)CCCC2=O)cc1[N+](=O)[O-] (centres unmarked) [D5.026],34.1
18,Cc1ccc2nc(-c3ccc(N4C(=O)CC(N5CCC(C)CC5)C4=O)cc3)sc2c1 (centres unmarked) [D3.094],116
19,COc1cc(C)ccc1N(CCCN1C(=O)c2cccc3cccc(c23)C1=O)C(=O)c1cc(C)cc(C)c1 [D3.073],55.4
20,O=C(N/N=C/c1ccc([N+](=O)[O-])c(O)c1)/C(=C\c1cccs1)NC(=O)c1ccccc1 [D10.004],6.5
21,CCCc1cccc(/C=N/NC(=O)c2cc(-c3ccc(F)cc3)n[nH]2)c1O [D6.079],55.3

row,Structure (SMILES),IC50 [µM]
1,CC1=C(C#N)C(=O)N(CCCO)C(=O)/C1=C\c1ccc(-c2cc(C)c(C)cc2[N+](=O)[O-])o1 [D6.055],34.8
2,O=C(CCCCC(=O)N/N=C/c1ccccc1[N+](=O)[O-])N/N=C/c1ccccc1[N+](=O)[O-] [D10.020],12.8
3,CCOC(=O)C1=C2SCC(=O)N2C(N)=C(C#N)C1 [D3.009],14.1
4,CC(C)C1=CC23CCC4C(C)(C(=O)O)CCCC4(C)C2CC1C1C(=O)N(c2cccc(O)c2)C(=O)C13 (centres unmarked) [D3.074],55.4
5,O=C(Oc1csc(-c2cccnc2)n1)C1CC1 [D4.061],52.5
6,CC1=C(C#N)C(=O)N(CCCO)C(=O)/C1=C\c1ccc(-c2cc(C)c(C)cc2[N+](=O)[O-])o1 [D4.046],34.8
7,Cc1cccc(C(=O)Oc2c(Br)cc(Br)cc2/C=N/NC(=O)CNC(=O)c2ccc(Cl)cc2)c1 [D10.021],13.2
8,CNc1nc2c(c(=O)[nH]c(=O)n2C)n1Cc1ccccc1Cl [D3.091],27.8
9,C/C(=N\NC(=O)c1cc(C(C)(C)C)n[nH]1)c1ccc(Cl)cc1 [D10.081],55.7
10,Brc1cccc(/C=N/Nc2nnc3c(n2)[nH]c2ccccc23)c1 [D10.015],12.2
11,CC(/C=N/NC(=O)CNc1ccc(C)cc1)=C\c1ccc(/C=C(C)/C=N/NC(=O)CNc2ccc(C)cc2)cc1 [D10.038],20.5
12,C/C(=N\NC(=O)c1cc(C)n[nH]1)c1ccc(-c2ccccc2)cc1 [D10.047],29.8
13,CNc1nc2c(c(=O)[nH]c(=O)n2C)n1Cc1ccccc1Cl [D6.043],27.8
14,O=C(Cn1c2ccccc2c(=O)c2ccccc21)NN=Cc1cc(Br)c(O)c(Br)c1 [D10.018],12.4
15,Brc1cccc(/C=N/Nc2nnc3c(n2)[nH]c2ccccc23)c1 [D3.015],12.2
16,COc1cc2c(cc1OC)C13CCN4CC5=C(C6=C7CN8CCC9%10c%11cc(OC)c(OC)cc%11N%11C(=O)CC(O6)C(C7CC89)C%11%10)OC6CC(=O)N2C1C6C5CC43 (centres unmarked) [D3.029],22.9
17,CCC(N)C(=O)c1cccs1 (centres unmarked) [D6.085],61.4
18,CCOC(=O)c1c(C)oc2c1c1c(c3ccccc32)OCN(C2CCS(=O)(=O)C2)C1 (centres unmarked) [D3.046],34.2
19,COc1ccc(Cl)cc1N1C(=O)CSCC1=O [D4.041],30.7
20,CCOC(=O)CC(N)c1ccccc1Cl (centres unmarked) [D13.005],72.2
21,Cc1ccc(C)n1-c1cccc(C(=O)N/N=C/c2cc(Br)c(O)c(Br)c2)c1 [D10.065],41
